According to ChEMBL document CHEMBL4819026, “4-Oxoquinolines and monoamine oxidase: When tautomerism matters” (Eur J Med Chem, 2021):

Tests used:
[1] = target: T1, Amine oxidase [flavin-containing] A (Homo sapiens, UniProt P21397); assay: Inhibition of recombinant human MAOA using kynuramine as substrate at 10 uM measured for 30 mins by fluorescence spectrophotometric assay relative to control; conditions: 0.5 h
T1 sequence (P21397 whole entry): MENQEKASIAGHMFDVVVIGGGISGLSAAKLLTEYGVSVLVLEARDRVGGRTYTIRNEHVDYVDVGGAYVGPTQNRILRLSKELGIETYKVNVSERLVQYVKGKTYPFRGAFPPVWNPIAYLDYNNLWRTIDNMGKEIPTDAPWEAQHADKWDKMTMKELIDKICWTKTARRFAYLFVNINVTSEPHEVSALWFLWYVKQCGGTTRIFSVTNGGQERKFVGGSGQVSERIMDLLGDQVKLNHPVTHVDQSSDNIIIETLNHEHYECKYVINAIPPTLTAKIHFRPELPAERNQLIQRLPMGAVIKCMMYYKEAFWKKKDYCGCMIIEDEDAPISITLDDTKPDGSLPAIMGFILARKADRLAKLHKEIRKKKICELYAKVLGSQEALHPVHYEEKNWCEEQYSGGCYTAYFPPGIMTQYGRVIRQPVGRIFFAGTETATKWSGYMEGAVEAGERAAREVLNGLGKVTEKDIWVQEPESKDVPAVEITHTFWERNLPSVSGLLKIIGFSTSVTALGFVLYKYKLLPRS

[2] = target: T2, Amine oxidase [flavin-containing] B (Homo sapiens, UniProt P27338); assay: Inhibition of recombinant human MAOB using kynuramine as substrate at 10 uM measured for 30 mins by fluorescence spectrophotometric assay relative to control; conditions: 0.5 h
T2 sequence (P27338 whole entry): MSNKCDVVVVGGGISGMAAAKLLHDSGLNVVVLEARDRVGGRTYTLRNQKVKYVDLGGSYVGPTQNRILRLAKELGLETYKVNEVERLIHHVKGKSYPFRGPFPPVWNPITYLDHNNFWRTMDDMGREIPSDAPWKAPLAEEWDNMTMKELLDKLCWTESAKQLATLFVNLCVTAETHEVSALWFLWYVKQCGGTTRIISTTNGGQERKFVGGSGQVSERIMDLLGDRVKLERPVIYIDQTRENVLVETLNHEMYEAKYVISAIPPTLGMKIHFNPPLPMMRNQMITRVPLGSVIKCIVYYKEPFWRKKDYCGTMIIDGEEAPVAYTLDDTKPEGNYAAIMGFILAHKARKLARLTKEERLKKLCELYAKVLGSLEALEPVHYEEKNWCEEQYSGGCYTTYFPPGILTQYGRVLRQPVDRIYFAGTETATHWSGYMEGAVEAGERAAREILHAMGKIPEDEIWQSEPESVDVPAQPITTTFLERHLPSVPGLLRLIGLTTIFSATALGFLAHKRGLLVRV

[3] = system: SH-SY5Y; assay: Cytotoxicity against differentiated human SH-SY5Y cells assessed as cell viability at 1 to 10 uM after 24 hrs by neutral red uptake assay relative to control; format: cell-based; conditions: dose 1-10 µM
[4] = target: T1, Amine oxidase [flavin-containing] A; assay: Inhibition of recombinant human MAOA using kynuramine as substrate measured for 30 mins by fluorescence spectrophotometric assay
[5] = species on record: Homo sapiens; assay: Selectivity index, ratio of IC50 for inhibition of human MAOA to IC50 for inhibition of human MAOB
[6] = target: T2, Amine oxidase [flavin-containing] B; assay: Inhibition of recombinant human MAOB using kynuramine as substrate measured for 30 mins by fluorescence spectrophotometric assay
[7] = system: SH-SY5Y; assay: Cytotoxicity against differentiated human SH-SY5Y cells assessed as cell viability at 1 to 10 uM after 24 hrs by SRB assay relative to control; format: cell-based; conditions: dose 1-10 µM
[8] = Cytotoxicity against differentiated human SH-SY5Y cells assessed as cell viability at 10 uM after 24 hrs by resazurin reduction assay relative to control; format: cell-based; conditions: read-out: Activity

SMILES	inhibition at 10 µM [1] [%]	inhibition at 10 µM [2] [%]	IC50 [4] [µM]	Ratio IC50 [5]	IC50 [6] [µM]	Activity [3]	Activity [7]	viability at 24 h, 10 µM [8] [%]
Cn1cc(C(=O)Nc2ccc(Cl)c(Cl)c2)c(=O)c2ccccc21	38			> 1890	5.3	Non-Toxic	Non-Toxic	> 90
Cn1cc(C(=O)Nc2cccc(Cl)c2)c(=O)c2ccccc21			7480	258	29	Non-Toxic	Non-Toxic	> 90
O=C(Nc1cccc(Cl)c1)c1c[nH]c2ccccc2c1=O	8	40						
Cc1ccc(NC(=O)c2cn(C)c3ccccc3c2=O)cc1C			1160	19.6	82.3	Non-Toxic	Non-Toxic	

More lines, main results first:

inhibition at 10 µM [1] [%]	inhibition at 10 µM [2] [%]	IC50 [4] [µM]	Ratio IC50 [5]	IC50 [6] [µM]	SMILES	Activity [3]	Activity [7]	viability at 24 h, 10 µM [8] [%]
15	35				Cc1ccc(NC(=O)c2c[nH]c3ccccc3c2=O)cc1C			
		1740	157	11.1	O=C(Nc1ccc(Cl)c(Cl)c1)c1c[nH]c2ccccc2c1=O	Non-Toxic	Non-Toxic	
